# Measurements as given in US10662204B2 (PFIZER INC., priority 2018, dated 2020).
# Legend:
# [1] = biological target: T1, GDP-loaded KRAS (1-169) G12C, C51S, C80L, C118S (Homo sapiens, UniProt P01116, C118S/C51S/C80L/G12C); experiment: Mass Spectrometry Reactivity Assay (MSRA): covalent adduct of compound and KRAS G12C, Percent Modification; format: binding; conditions: for MSRA (% modification) 5.0 μM 0.25 hr / MSRA (% modification) 5.0 μM 0.017 hr: 5.0 μM compound; for MSRA (% modification) 10 μM 0.25 hr / MSRA (% modification) 10 μM 0.50 hr: 10 μM compound
# T1 construct: GDP-loaded KRAS (1-169) G12C, C51S, C80L, C118S
# How it was run: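 Covalent labelling is measured by intact mass: deconvoluted modified and unmodified peak intensities yield percent modification. Compound, usually 5 μM or 10 μM final, reacts at room temperature with 5 μM GDP-bound KRAS G12C (1-169, C51S/C80L/C118S) in Hepes pH 7.5/NaCl/glycerol, sampled at 1, 15, 30, 60 min.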
# [2] = biological target: T2, KRAS G12C (Homo sapiens, UniProt P01116, G12C); experiment: Cell Activity Assay: accumulation of GDP-bound KRAS G12C in MIAPaCa-2 cells (Raf-1 RBD capture, MSD readout); format: cell-based; parameters: endogenous in cells; host or cells: MIAPaCa-2; conditions: 6 hours, assay limit is 30.00
# How it was run: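 IC50 came from a 4-parameter fit of Ras signal normalized between DMSO and full-inhibition controls. Readout: lysate GTP-Ras bound to immobilized Raf-1 RBD, quantified with pan-Ras antibody and MSD electrochemiluminescence. Lysates derived from MIAPaCa-2 cells treated 6 h with serially diluted compound, 0.3% DMSO.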
# [3] = biological target: T2, KRAS G12C; experiment: Cell Activity Assay: IC50 in H358 cells; format: cell-based; parameters: endogenous in cells
# Protocol: Compounds presented in the present invention lead to the accumulation of the GDP bound Ras upon treatment of human cancer cell line.
# The accumulation of the GDP-bound KRAS G12C in cellular environment was measured based on the principle that KRAS G12C only binds to its downstream kinase; Raf-1 (MAP Kinase Kinase Kinase), when in its active-GTP bound state. In this state, Ras binded to a domain of Raf-1 kinase referred to as the Ras Binding Domain (RBD).
# Raf-1 RBD (LJIC-1988A1) was diluted to 100 ng/well in PBS and 5 μl/well was spot coated onto MSD high bind SECTOR plates (L15XB). Plates were incubated at room temperature for 1 hour on an orbital shaker. Plates were washed with PBS/0.05% Tween-20 and 50 μl/well of thawed lysate samples were added, followed by 50 μl of 1% MSD Blocker A in PBS/0.05 Tween-20 (R93BA). Plates were incubated for 1 hour on an orbital shaker and washed with PBS/0.05% Tween-20. 25 μl/well of Anti-pan-Ras Antibody (Cell Biolabs 244003) diluted 1:3000 was added in 1% MSD Blocker A solution and plates were incubated for 1 hour on an orbital shaker and washed with PBS/0.05% Tween-20. SULFO-TAG goat anti-mouse secondary antibody (MSD R32AC) was diluted 1:500 in MSD Blocker A solution and added at 25 μL/well. Plates were incubated for 1 hour on an orbital shaker and washed with PBS/0.05% Tween-20. 150 μl/well of Read Buffer T (MSD R92TC) diluted 1:3 in H2O was added and plates were read on a Meso Scale Discovery Sector Imager S600.
# KRAS signal was normalized to maximum inhibition and DMSO control values, and IC50 values were generated using a 4 parameter fit of the dose response curve. The decrease in IC50 reflects that the exemplary compound lead to a higher level of accumulation of GDP-bound KRAS G12C than another exemplary compounds at specific timepoint of treatment of cancer cell line.
MSRA (% modification) 5.0 μM 0.25 hr [1],MSRA (% modification) 10 μM 0.25 hr [1],IC50 [2],IC50 [3],MSRA (% modification) 10 μM 0.50 hr [1],MSRA (% modification) 5.0 μM 0.017 hr [1],SMILES
66%,81%,0.117 µM,0.191 µM,–,–,"C=CC(=O)N1CCN(c2nc(OC[C@@H]3CCCN3C)nc3c(Oc4c(Cl)c(F)cc5[nH]ncc45)nccc23)CC1 [Example 01H, 1-[4-(8-[(5-chloro-6-fluoro-1H-indazol-4-yl)oxy]-2-{[(2S)-1-methylpyrrolidin-2-yl]methoxy}pyrido[3,4-d]pyrimidin-4-yl)piperazin-1-yl]prop-2-en-1-one]"
–,60%,0.051 µM,0.109 µM,–,–,"C=CC(=O)N1CCN(c2nc(OC[C@@H]3CN(C)C[C@H]3OC)nc3c(Oc4c(Cl)c(F)cc5[nH]ncc45)nc(Cl)cc23)CC1 [Example 19G, 1-[4-(6-chloro-8-[(5-chloro-6-fluoro-1H-indazol-4-yl)oxy]-2-{[(3S,4S)-4-methoxy-1-methylpyrrolidin-3-yl]methoxy}pyrido[3,4-d]pyrimidin-4-yl)piperazin-1-yl]prop-2-en-1-one]"
–,77%,0.102 µM,0.448 µM,–,–,"C=CC(=O)N1CCN(c2nc(OCC3CCCO3)nc3c(Oc4c(Cl)c(F)cc5[nH]ncc45)nc(Cl)cc23)CC1 (stereo not shown) [Example 11G, 1-(4-{6-chloro-8-[(5-chloro-6-fluoro-1H-indazol-4-yl)oxy]-2-(tetrahydrofuran-2-ylmethoxy)pyrido[3,4-d]pyrimidin-4-yl}piperazin-1-yl)prop-2-en-1-one]"
–,44%,0.892 µM,2.56 µM,68%,–,"C=CC(=O)N1CCN(c2ncnc3c(Oc4c(Cl)c(C)cc5[nH]ncc45)nccc23)CC1 [Example 11A, 1-(4-{8-[(5-chloro-6-methyl-1H-indazol-4-yl)oxy]pyrido[3,4-d]pyrimidin-4-yl}piperazin-1-yl)prop-2-en-1-one]"
88%,81%,0.034 µM,0.087 µM,84%,43%,"C=CC(=O)N1CCN(c2nc(OC[C@H]3CN(C)C[C@@H]3OC)nc3c(Oc4c(Cl)c(F)cc5[nH]ncc45)nc(Cl)cc23)CC1 [Example 18G, 1-[4-(6-chloro-8-[(5-chloro-6-fluoro-1H-indazol-4-yl)oxy]-2-{[(3R,4R)-4-methoxy-1-methylpyrrolidin-3-yl]methoxy}pyrido[3,4-d]pyrimidin-4-yl)piperazin-1-yl]prop-2-en-1-one]"
–,81%,0.069 µM,0.123 µM,–,–,"C=CC(=O)N1CCN(c2nc(OC[C@@H]3CCCN3C)nc3c(Oc4c(Cl)ccc5[nH]ncc45)nc(Cl)cc23)CC1 [Example 09G, 1-[4-(6-chloro-8-[(5-chloro-1H-indazol-4-yl)oxy]-2-{[(2S)-1-methylpyrrolidin-2-yl]methoxy}pyrido[3,4-d]pyrimidin-4-yl)piperazin-1-yl]prop-2-en-1-one]"
–,79%,0.08 µM,0.152 µM,–,26%,"C=CC(=O)N1CCN(c2nc(OC[C@@H]3C[C@H](OC)CN3C)nc3c(Oc4c(Cl)c(F)cc5[nH]ncc45)nc(Cl)cc23)CC1 [Example 20G, 1-[4-(6-chloro-8-[(5-chloro-6-fluoro-1H-indazol-4-yl)oxy]-2-{[(2S,4S)-4-methoxy-1-methylpyrrolidin-2-yl]methoxy}pyrido[3,4-d]pyrimidin-4-yl)piperazin-1-yl]prop-2-en-1-one]"
67%,79%,0.23 µM,0.501 µM,82%,–,"C=CC(=O)N1CCN(c2nc(OC[C@@H]3CCCN3C)nc3c(Oc4c(C)ccc5[nH]ncc45)cccc23)CC1 [Example 07E, 1-[4-(8-[(5-methyl-1H-indazol-4-yl)oxy]-2-{[(2S)-1-methylpyrrolidin-2-yl]methoxy}quinazolin-4-yl)piperazin-1-yl]prop-2-en-1-one]"
85%,73%,0.255 µM,0.758 µM,80%,–,"C=CC(=O)N1CCN(c2ncnc3c(Oc4c(Cl)c(F)cc5[nH]ncc45)nc(Cl)cc23)CC1 [Example 20A, 1-(4-{6-chloro-8-[(5-chloro-6-fluoro-1H-indazol-4-yl)oxy]pyrido[3,4-d]pyrimidin-4-yl}piperazin-1-yl)prop-2-en-1-one]"
–,–,7.84 µM,8.2 µM,30%,–,"C=CC(=O)N1CCN(c2nc(N3CC(N(C)C)C3)nc3c(Oc4c(C)ccc5[nH]ncc45)nccc23)CC1 [Example 02B, 1-(4-{2-[3-(dimethylamino)azetidin-1-yl]-8-[(5-methyl-1H-indazol-4-yl)oxy]pyrido[3,4-d]pyrimidin-4-yl}piperazin-1-yl)prop-2-en-1-one]"
–,82%,0.04 µM,0.06 µM,–,–,"C=CC(=O)N1CCN(c2nc(OC[C@@H]3CCCN3C)nc3c(Oc4c(Cl)c(F)cc5[nH]ncc45)nc(Cl)cc23)CC1 [Example 01G, 1-[4-(6-chloro-8-[(5-chloro-6-fluoro-1H-indazol-4-yl)oxy]-2-{[(2S)-1-methylpyrrolidin-2-yl]methoxy}pyrido[3,4-d]pyrimidin-4-yl)piperazin-1-yl]prop-2-en-1-one]"
